Consider seven molecules from US20150111852A1, “1-Di(sec-butyl)-phosphinoyl-pentane (dapa-2-5) as a topical agent” (priority 2013, published 2015).

Data set [1] deals with oral cavity and pharyngeal surfaces. Put plainly: Sensory activity of ODT-A on volunteers. Type of data set: in vivo, human. The settings on record: 6 to 8 trials per compound. The procedure: ODT-A was prepared by dissolving the DAPA compound in absolute ethanol, adding a 80% mannitol-20% maltitol mixture of equal weight and then adding an equal volume of distilled water. The mixture was the stirred with a glass rod, and dispensed onto a piece of wax or parchment paper with a disposable plastic pipette. The viscous liquid drop formed was then dried under a heat source for at least 4 hr. The nominal dose of the API in ODT-A ranged from 1 to 3 mg/tablet. The dried tablets weighed on average 150 mg each and when on the dorsal surface of the tongue, rapidly dissolved completely in saliva and coated the oropharyngeal surface. These tablets were suitable for initial pilot studies, but were not uniform in size, were friable, especially in conditions of high ambient humidity, and were not readily amenable to further analytical evaluation.
Sensory Qualities of ODT on the Oral Cavity and Pharyngeal Surfaces The DAPA ODT of Study 2 were evaluated for sensory properties on volunteers. The ODT-A results [see table] are from 6 to 8 trials per compound in several experienced individuals familiar with sensory properties of “cooling agents”. The results of ODT-A will be discussed together with ODT-B and ODT-C.

For data set [2], the system named is throat. Nature of the data set: Cold water test after ODT-A (cold discomfort). Type of data set: in vivo, human. On the set-up: key: If the subject felt “normal coolness” in the throat, the value was “0”; if the water felt “excessively cold” on the throat, it was rated as “+”; if there was “aching cold/discomfort” on the throat, the ranking was “++”. As to conditions: ODT-A on the tongue, ice water drunk 10 min later. How it is done: After application of ODT-A there were sensations associated with heat abstraction of various intensity and duration. Of particular note was the sensation of “icy or painful” cold was felt with some compounds, but the effect was variable. To isolate this sensation more precisely and reduce variability, ODT-A was placed on the tongue and 10 min later the subject was instructed to drink a mouthful of water previously equilibrated with ice chips. If the subject felt “normal coolness” in the throat, the value was “0”; if the water felt “excessively cold” on the throat, it was rated as “+”; and if there was “aching cold/discomfort” on the throat, the ranking was “++”. The term “cold discomfort” was applied compounds that produced “++”, and this phenomenon could now be reliably defined and identified with the cold water test.

Data set [3] concerns oropharynx. Nature of the data set: Chili-pepper sauce irritation test. The data set is classed as in vivo, human. Also on record: key: If there was no suppression of the irritant/tickling sensations of the sauce, the value was “0”; if there was some suppression, the value was “+”; if there was complete suppression, then the value was “++.”. As to conditions: ODT, sauce applied 30 min later; 6 to 8 trials per compound. The text has this: The “pain” component of inflammation includes irritation, itch, and discomfort and suppression of these endpoints is termed “anti-nociceptive”. To determine if a compound has anti-nociceptive activity, the Inventor has devised a modified capsaicin challenge method to evoke discomfort in the oropharyngx: the chili-pepper sauce irritation test. Chili-pepper sauce placed onto the posterior dorsal surface of the tongue evokes a tickling/irritant sensations in the oropharynx. The sensations associated with the chili pepper sauce are located in the back of the mouth and are clearly recognized and associated with irritation and a desire to clear the throat. In the chili-pepper sauce irritation test, the test compound is delivered using an ODT, as in Study 3, and 30 min later 0.2 to 0.25 mL of the sauce was applied onto the posterior dorsal surface of the tongue (with a syringe or a plastic stick). The chili pepper sauce used here is called Yank Sing® Chili Pepper Sauce (YS Gourmet Productions, Inc., PO Box 26189, San Francisco, Calif. 94126) and is a well-known condiment for use with dim sum (Chinese tea lunch). If there was no suppression of the irritant/tickling sensations of the sauce, the value was “0”; if there was some suppression, the value was “+”; and if there was complete suppression, then the value was “++.” For compounds that gave a ++ score, the irritative signals of the chili-pepper sauce are completely absent, yet the salty taste from the soy sauce of the condiment can still be readily tasted. A “++” result indicated suppression of the irritant effects of chili-pepper sauce. Numerical results are from 6 to 8 trials per compound.

The target in data set [4] is T1, cloned hTRPM8 channel (encoded by the human TRPM8 gene, expressed in CHO cells) (Homo sapiens, UniProt Q7Z2W7).
T1 construct: host or cells: CHO cells, stably transfected
Nature of the data set: TRPM8 agonist FLIPR Fluo-8 calcium assay. Type of data set: cell-based. As to conditions: for EC50: CHO cells, Fluo-8, n=4 replicates. The procedure:
The in vitro effects of test compounds were evaluated on cloned hTRPM8 channel (encoded by the human TRPM8 gene, expressed in CHO cells) using a Fluo-8 calcium kit and a Fluorescence Imaging Plate Reader (FLIPR^TETRA™) instrument.
Test compounds and positive control solutions were prepared by diluting stock solutions in a HEPES-buffered physiological saline (HBPS) solution. The test compound and control formulations were loaded in polypropylene or glass-lined 384-well plates, and placed into the FLIPR instrument (Molecular Devices Corporation, Union City, Calif., USA). The test compounds were evaluated at 4 or 8 concentrations with n=4 replicates per determination. […] The test cells were Chinese Hamster Ovary (CHO) cells stably transfected with human TRPM8 cDNAs.
For the FLIPR^TETRA™ assay, cells were plated in 384-well black wall, flat clear-bottom microtiter plates (Type: BD Biocoat Poly-D-Lysine Multiwell Cell Culture Plate) at approximately 30,000 cells per well. Cells were incubated at 37° C. overnight to reach a near confluent monolayer appropriate for use in a fluorescence assay. The test procedure was to remove the growth media and to add 40 μL of HBPS containing Fluo-8 for 30 min at 37° C. 10 μL of test compound, vehicle, or control solutions in HBPS were added to each well and read for 4 min.
Concentration-response data were analyzed via the FLIPR Control software that is supplied with the FLIPR System (MDS-AT) and fitted to a Hill equation of the following form: […]
where: “Base” is the response at low concentrations of test compound; “Max” is the maximum response at high concentrations; “xhalf” is the EC50, the concentration of test compound producing half-maximal activation; and “rate” is the Hill coefficient. Nonlinear least squares fits were made assuming a simple one-to-one binding model.

The test system of data set [5] is mouth and throat. Nature of the data set: Sensory activity of ODT-C on volunteers (double-blind, modified ASHRAE scale). The data set is classed as in vivo, human. As to conditions: for ODT-C test results (sensation and taste in words) / duration of cooling effect: 1.2 to 1.5 mg per ODT; for ODT-C test results (sensation and taste in words): 4 volunteers; for duration of cooling effect: ODT-C; for ASHRAE equivalent: peak heat abstraction sensation, modified ASHRAE scale neutral [0] to icy cold [-4]. How it is done:
ODT-C. More experiments were conducted to find a smaller tablet, in the range of 40 to 60 mg, with a disintegration of <10 sec. These paraemters might achieve a better pharmacological effect. ODT-B was 100 mg in size and disintegrated in <20 sec. […] For example, to 1.5 g of DAPA-2-5 is added 1.5 g of absolute ethanol, followed by 2.0 g of Neusilin US2. The mixture is shaken or mixed in a Speedmixer at 500 rpm for 1 min. The sample is placed under a heat source and about 2 hr later, the sample size is re-weighed with the expectation that the ethanol has been evaporated and the sample now weights 3.5 g. This powder is free-flowing. • b. a sample of maltitol powder is prepared (Maltisorb® P200 from Roquette). • c. a sample of Prosolv® EasyTab is prepared (JRS Pharma, Rosenburg, Germany). • d. a blend of a. [2.80 g], b. [15.73 g] and c. [31.46 g] is prepared to make 1000 ODT tablets, each weighing 50 mg and containing 1.2 mg of DAPA-2-5. • e. the blend is first shaken by hand, then placed for 2 min in a SpeedMixer at 500 rpm. The blend is poured into the funnel of a New Single Punch Tablet Press Pill Making Machine Maker TDP-1-5 [available from Amazon.com] and the extruded tablets are collected.
ODT-C, described in Study 2, were tested for sensory properties on 4 volunteers, with at least 3 trials per compound and at 1.2 to 1.5 mg per ODT. The ODT was placed on the mid-line posterior dorsal surface of the tongue and sensory effects recorded for 30 min on a standardized form […]. The ODT were coded and administered on a double-blind basis. A modified ASHRAE scale of neutral, slightly cool [-1], cool [-2], cold [-3], and icy cold [-4] was used to rank the peak heat abstraction sensations in the mouth and throat. Other perceived effects, e.g. taste and duration, were also noted.

For data set [6], the system named is oropharynx. Nature of the data set: Sensory effects and cold discomfort of compounds given orally in ODT (general evaluation). Type of data set: in vivo, human. As to conditions: menthol at a dose of 2 mg in an ODT; icilin dose not given. The procedure: The correlation between a chemical's potency at the TRPM8 receptor (measured by the EC50 μM) and potency to evoke sensory events in the oropharynx is complex.
When a test compound is applied to non-keratinizng bodily surfaces (e.g., oropharyngeal surface), it is possible to characterize the resulting sensations.
The sensations are akin to rapid drinking of cold water mixed and equilibrated with ice chips. The intense cold is further accentuated if the drink is acidified, for example, with lemonade. The sensations of dull and intense cold on the surface of the oropharynx can be described as painful, uncomfortable, and aversive. The term “icy cold” is used to describe these adverse intense cold sensations.
Together, these three types of sensations—“icy cold”, coldness in the chest, and systemic coldness—is termed “cold discomfort”. […] The ideal agent must have a circumscribed site of action, and the intensity of the sensation should not cause “icy cold”, coldness in the chest, or systemic chills.

For data set [7], the target named is T2, ASIC3 (acid-sensing) (Homo sapiens, UniProt Q9UHC3).
T2 construct: expressed in transfected cells
T2 sequence (Q9UHC3 1-531): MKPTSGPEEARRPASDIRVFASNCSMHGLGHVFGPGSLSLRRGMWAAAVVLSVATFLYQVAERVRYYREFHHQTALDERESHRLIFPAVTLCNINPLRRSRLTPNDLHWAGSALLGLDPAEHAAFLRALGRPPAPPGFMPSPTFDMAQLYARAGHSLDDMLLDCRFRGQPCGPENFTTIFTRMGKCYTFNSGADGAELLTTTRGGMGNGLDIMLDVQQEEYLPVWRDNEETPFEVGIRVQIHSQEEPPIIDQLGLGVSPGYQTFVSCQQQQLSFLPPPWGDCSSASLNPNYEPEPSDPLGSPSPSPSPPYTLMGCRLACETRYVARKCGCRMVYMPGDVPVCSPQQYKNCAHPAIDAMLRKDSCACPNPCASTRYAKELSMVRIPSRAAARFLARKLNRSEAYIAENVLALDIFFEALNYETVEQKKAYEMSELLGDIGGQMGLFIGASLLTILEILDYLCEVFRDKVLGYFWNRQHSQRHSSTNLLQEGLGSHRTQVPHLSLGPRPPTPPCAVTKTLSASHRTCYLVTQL
Put plainly: Patch-clamp in transfected cells, ASIC3. As to conditions: DAPA-2-5 at 5 μM; positive control amiloride. Type of data set: cell-based.

T1 sequence (Q7Z2W7 whole entry): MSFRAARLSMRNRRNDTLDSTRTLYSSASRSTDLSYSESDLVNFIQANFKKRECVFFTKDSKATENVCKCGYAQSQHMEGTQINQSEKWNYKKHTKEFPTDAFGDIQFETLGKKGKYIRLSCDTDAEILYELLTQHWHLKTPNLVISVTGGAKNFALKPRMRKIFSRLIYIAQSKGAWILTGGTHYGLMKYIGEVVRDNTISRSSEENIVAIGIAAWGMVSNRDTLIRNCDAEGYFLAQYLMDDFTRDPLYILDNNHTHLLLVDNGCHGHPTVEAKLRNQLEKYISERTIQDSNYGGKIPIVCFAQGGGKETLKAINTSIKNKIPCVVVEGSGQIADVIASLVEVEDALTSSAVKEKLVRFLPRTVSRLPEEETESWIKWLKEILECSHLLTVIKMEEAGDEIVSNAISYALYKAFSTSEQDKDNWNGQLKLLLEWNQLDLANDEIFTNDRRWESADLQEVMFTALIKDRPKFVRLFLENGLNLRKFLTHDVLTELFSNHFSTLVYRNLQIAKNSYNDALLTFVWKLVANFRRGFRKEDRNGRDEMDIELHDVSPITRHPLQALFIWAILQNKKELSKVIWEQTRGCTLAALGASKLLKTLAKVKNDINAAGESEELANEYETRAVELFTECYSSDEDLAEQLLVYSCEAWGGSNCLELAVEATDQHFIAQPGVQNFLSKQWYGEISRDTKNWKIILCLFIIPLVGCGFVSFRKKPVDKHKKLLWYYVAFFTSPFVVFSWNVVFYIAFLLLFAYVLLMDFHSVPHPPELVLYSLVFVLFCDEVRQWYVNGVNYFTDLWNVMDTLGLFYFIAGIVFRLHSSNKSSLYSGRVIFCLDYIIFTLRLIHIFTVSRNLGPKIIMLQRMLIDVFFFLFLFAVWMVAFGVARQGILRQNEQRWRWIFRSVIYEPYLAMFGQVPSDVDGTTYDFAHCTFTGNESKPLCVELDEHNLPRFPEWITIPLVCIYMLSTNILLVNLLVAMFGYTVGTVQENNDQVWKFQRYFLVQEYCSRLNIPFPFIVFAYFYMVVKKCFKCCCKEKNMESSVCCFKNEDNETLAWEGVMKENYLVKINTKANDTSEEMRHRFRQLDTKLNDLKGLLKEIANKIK

By EC50 is commonly meant the concentration at which the effect is half-maximal. Consider `CCC(C)P(=O)(CCC(C)C)C(C)CC` (centres unmarked) [DAPA-3-2, 1-Di(sec-butyl) phosphinoyl-3-methyl-butane], for which, in data set [1], the “Duration” value worked out at 2 min, the “Onset” value worked out at 1 min and the “Sensory Quality” value is given as “brief cool”. The “Cold Discomfort” value in data set [2] was determined as 0. Further, the Chili test in data set [3] turned out to be 0. In data set [4], the “Relative Potency to L-menthol” value is given as 0.9 and the EC50 was determined as 4.2 µM.

In the case of `CCCCP(=O)(C(C)CC)C(C)CC` (centres unmarked) [DAPA-2-4, 1-Di(sec-butyl) phosphinoyl-butane], in data set [1], the “Duration” value is given as 3 min, the “Onset” value is listed as 1 min and the “Sensory Quality” value is given as “brief cool”. The “Cold Discomfort” value in data set [2] amounted to 0. This molecule also yielded a Chili test in data set [3] of 0. Moreover, the “Relative Potency to L-menthol” value in data set [4] came out at 0.3. Further, in data set [5], the “ODT-C test results (sensation and taste in words)” value (“ODT-C test results” for short) is recorded as “pleasant cool, but transient effect”; the “duration of cooling effect” value is given as under 5 min; the ASHRAE equivalent is listed as −2.5.

Regarding `CCCCCP(=O)(C(C)C)C(C)C` [DAPA-1-5, 1-Di(isopropyl)-phosphinoyl-pentane], in data set [1], the “Duration” value was 5 min, the “Onset” value amounted to 0.1 min and the “Sensory Quality” value is “cool”. In addition, in data set [2], the “Cold Discomfort” value was 0. In addition, in data set [3], the Chili test result is on record as “++”. In data set [4], the “Relative Potency to L-menthol” value was determined as 0.7. Moreover, in data set [5], the “ODT-C test results” value was “brief but intense cool”; the “duration of cooling effect” value is on record as under 5 min; the ASHRAE equivalent is reported as −2.7.

As to `CCCCCP(=O)(CC(C)C)CC(C)C` [DAPA-3-1, 1-di(iso-butyl) phosphinoyl-pentane], in data set [1], the “Duration” value was found to be 0 min, the “Onset (min)” value is “not active” and the “Sensory Quality” value was “not active”. Also, the “Cold Discomfort” value in data set [2] worked out at 0. This molecule returned a Chili test in data set [3] of 0. In data set [4], the “Relative Potency to L-menthol” value is reported as 0.2 and the EC50 worked out at 24 µM.

Regarding `CCCCCCCCP(=O)(C(C)C)C(C)C` [DAPA-1-8, 1-Di(isopropyl)-phosphinoyl-octane], in data set [1], the “Duration” value is recorded as 27 min, the “Onset” value turned out to be 1.2 min and the “Sensory Quality” value was “cool”. The “Cold Discomfort” value in data set [2] is on record as “+”. Further, in data set [3], the Chili test entry was “+”. Further, in data set [4], the “Relative Potency to L-menthol” value was determined as 5.4. Moreover, in data set [5], the “ODT-C test results” value is “strong unpleasant taste”; the “duration of cooling effect” value is given as about 15 min; the ASHRAE equivalent was −3.

Regarding `O=C1NC(c2cccc([N+](=O)[O-])c2)=CCN1c1ccccc1O` [icilin, reference compound], the “sensory effects / side-effects in an ODT” value in data set [6] was “did not produce cooling in the chest or the desired sensations on the throat”. Further, the “rank in TRPM8 potency among the 21 compounds tested” value in data set [4] is 4.

As for `N=C(N)NC(=O)c1nc(Cl)c(N)nc1N` [amiloride, reference compound], the “agonist or antagonist activity, ASIC3” value in data set [7] is given as “active”.
